According to US10532038B2, “Beta-3 adrenoceptor agonists for the treatment of pulmonary hypertension” (FUNDACIÓN CENTRO NACIONAL DE INVESTIGACIONES …, priority 2012, dated 2020):

Assays:
[1] = system: animals with post-capillary chronic PH; experiment: Chronic oral treatment in post-capillary chronic PH (blind, randomized); assay type: in vivo, pigs; settings: 50 mg/12 hours orally for 14 days; intermediate analysis (N=4); control group showed an increase of PVRs
Experimental: (§1) Cardiac output was quantified by the thermodilution technique.
To evaluate the chronic effect of treatment with Mirabegron, a 50 mg tablet was administered orally every 12 hours in all cases. The fixed dose for all the animals was based on doses used in humans for different pathologies (never PH because it has never been tested in this entity), resulting in no adverse effects. The dose used for treating neurogenic bladder is 25 to 50 mg/day, whereas in studies designed to evaluate the effect of this drug in heart failure (see “Beta 3 Agonist Treatment in Heart Failure (Beat-HF) NCT01876433”), the expected initial dose is 25 mg/12 hours, being titrated to a maximum of 150 mg/12 hours. The dose of 50 mg/12 hours intends to be an average dose that can be easily extrapolated to patients with whom an efficacy study could be conducted knowing that the side effect profile is favorable.
Another cohort of animals with post-capillary chronic PH were randomized into chronic therapy for 14 days with Mirabegron (Myrbetrig® 50 mg/12 hours) or placebo. Right heart catheterization was performed pre- and post-treatment.

[2] = system: pre-capillary chronic PH model; experiment: Single dose in chronic pre-capillary PH; assay type: in vivo, Large-White pigs, Sus scrofa
Source text: The pre-capillary PH model was generated by means of pulmonary arterial embolization with synthetic microspheres 300 microns in diameter (Sephadex G50 coarse; Pharmacia Biotech; Freiburg, Germany), a variant of a model previously described (Bernd W. Bottiger, MD; Johann Motsch, MD; Joachim Dorsam, MD; UlfMieck, MD; Andre Gries, MD, forg Weimann, MD; and Eike Martin, MD. Inhaled Nitric Oxide Selectively Decreases Pulmonary Artery Pressure and Pulmonary Vascular Resistance Following Acute Massive Pulmonary Microembolism in Piglets. CHEST1996; 110:1041-47).
The protocol was initiated in 3 month old Large-White pigs, Sus scrofa species (weighing ≈40 kg). After general anesthesia and analgesia and under cardiac monitoring and orotracheal intubation, the femoral vein and artery were cannulated by means of percutaneous puncture in the cardiac hemodynamics laboratory. Through the venous access, a Swan-Ganz catheter was placed in one of the main branches of the pulmonary artery (PA), which was connected to a monitor to continuously record PAP and to quantify pulmonary capillary pressure and cardiac output. The arterial route allowed continuously recording systemic blood pressure. Venous access served to administer the microspheres towards the pulmonary arterial circulation. A solution was prepared with 500 mg of microspheres in 200 ml of physiological saline and the amount necessary to reach mean sustained PAP>40 mmHg in about 20 minutes was administered. This method was repeated weekly (3-5 embolizations) until generating chronic PH (mean PAP>25 mmHg at rest). Two-month follow-up was conducted on the animals. […] The histopathological lesions observed in the lung reproduce those shown in arterial PH or chronic thromboembolic PH in humans: arterial intima proliferation with media hypertrophy and perivascular fibrosis, vascular occlusions, and complex lesions such as vascular aneurisms or plexiform lesions.
as §1
(§2) A value of P<0.05 was considered significant.

animals with acute PH = experiment: Single dose in acute PH due to pulmonary embolism; assay type: in vivo, pigs; settings: 5 μg/Kg endovenous, 10 minutes after administration
Source text: In 10 2 month old healthy pigs (weighing ≈30 kg) anesthetized, intubated and ventilated with 40% FiO2, while continuously monitoring blood pressure, heart rate (HR), oxygen saturation as well as PAP and repeated measurements of cardiac output (CO) by means of thermodilution using a Swan-Ganz catheter, acute PH was generated by means of pulmonary embolization with a suspension of microspheres (Sephadex G50 coarse; Pharmacia Biotech; Freiburg, Germany) by femoral vein route. The dose necessary for causing an increase of mean PAP≥40 mmHg to remain stable for 10 minutes was administered. At that time the animals were randomized to receive specific β3 agonist BRL37344 (5 μg/Kg) or physiological saline (vehicle).
as §1, §2

[3] = system: post-capillary chronic PH model; experiment: Single dose in chronic post-capillary PH
Source text: The post-capillary PH model was generated by means of the non-restrictive surgical cerclage of the main pulmonary vein in 4 week old piglets (weighing about 10 kg). This vein drains the blood from both lower lung lobes, forming about 80% of the pulmonary mass. With analgesia and general anesthesia and under cardiac monitoring and orotraqueal intubation, the right external jugular vein and common carotid artery were located by means of surgical dissection. The Swan-Ganz catheter was introduced through the venous access to continuously monitor PAP, pulmonary capillary pressure and cardiac output. The arterial route also served to monitor systemic blood pressure during the surgical intervention. By means of right lateral thoracotomy through the fifth intercostal space, non-restrictive cerclage of the main pulmonary vein was performed by means of placing a 5 mm wide polyester band around the vessel fitting the at-rest diameter of the pulmonary venous confluence right before it enters the left atrium. […] It is therefore a progressive PH model (severity intensifies throughout follow-up). […] At the end of follow-up, the animals were euthanized and their hearts extracted for histological analysis.
(§3) The hemodynamic study was conducted by means of right heart catheterization strictly using the same methodology as in humans. Once PH was generated, the following parameters were quantified basally and after the administration of the β3 agonist, in duplicate: PAP, pulmonary capillary pressure and right atrial pressure. Cardiac output was quantified by the thermodilution technique. Five measurements were taken, and the mean of 3 measurements was considered after excluding the highest and lowest determinations. Left ventricular end-diastolic pressure was determined by means of placement of a pig-tail catheter inside the left ventricle through the femoral artery. Pulmonary vascular resistances were calculated as the difference between mean PAP and left ventricular end-diastolic pressure divided by the cardiac output and expressed in Wood units.
The effect of the drug was evaluated 10 minutes after administration in acute PH and 20 minutes after administration in chronic PH.
The continuous variables are expressed as mean±SD and qualitative variables are expressed as frequency (%). The comparison between the intervention groups with respect to changes in the variables, calculated as the difference between the post-treatment and pre-treatment value (both in acute PH and chronic PH), was performed by means of the Wilcoxon test. The evaluation of the effect of a single dose of β3 agonist on the hemodynamic parameters in chronic PH was performed by means of the Student's T test or Wilcoxon test for paired data, according to the distribution of the variables. A value of P<0.05 was considered significant.

[4] = system: animals with post-capillary chronic PH; experiment: Chronic endovenous treatment in post-capillary chronic PH (blind, randomized); settings: 10 μg/Kg/day for 14 days
Source text: The post-capillary PH model was generated by means of the non-restrictive surgical cerclage of the main pulmonary vein in 4 week old piglets (weighing about 10 kg). This vein drains the blood from both lower lung lobes, forming about 80% of the pulmonary mass. With analgesia and general anesthesia and under cardiac monitoring and orotraqueal intubation, the right external jugular vein and common carotid artery were located by means of surgical dissection. The Swan-Ganz catheter was introduced through the venous access to continuously monitor PAP, pulmonary capillary pressure and cardiac output. The arterial route also served to monitor systemic blood pressure during the surgical intervention. By means of right lateral thoracotomy through the fifth intercostal space, non-restrictive cerclage of the main pulmonary vein was performed by means of placing a 5 mm wide polyester band around the vessel fitting the at-rest diameter of the pulmonary venous confluence right before it enters the left atrium. […]
as §3, with “Five measurements were taken, and the mean of 3 measurements was considered after excluding the highest and lowest determinations.” left out
The continuous variables are expressed as mean±SD and qualitative variables are expressed as frequency (%). The comparison between the intervention groups with respect to changes in the variables, calculated as the difference between the post-treatment and pre-treatment value (both in acute PH and chronic PH), was performed by means of the Wilcoxon test. […]

[5] = 5 μg/Kg endovenous single dose, 20 minutes after administration

`Nc1nc(CC(=O)Nc2ccc(CCNC[C@H](O)c3ccccc3)cc2)cs1` [Mirabegron] was tested, and the “change of PVRs after 14 days” value [1] was “a reduction of PVRs was observed”.

In the case of `C[C@H](Cc1ccc(OCC(=O)O)cc1)NC[C@H](O)c1cccc(Cl)c1` [BRL 37344, [4-[(2R)-2-[[(2R)-2-(3-clorophenyl)-2-hydroxyethyl]amino]propyl]phenoxy]acetic acid], the “changes in heart rate” value [2, 5] is reported as “without significant changes”, the “changes in systemic blood pressure” value [2, 5] is reported as “without significant changes” and the “decrease of the mean PAP” value [2, 5] is reported as 32%. The “increase of oxygen saturation” value [2, 5] was 2%, the “reduction of systolic PAP” value [2, 5] was 25% and the “mean PAP after administration” value ([2]; 5 μg/Kg endovenous, 20 minutes, from 29.5±2.1 before) was 20.0±5.7 mmHg. For the same molecule, the “systolic PAP after administration” value ([2]; 5 μg/Kg endovenous, 20 minutes, from 37.5±6.4 before) was 28.0±8.5 mmHg, the “variation of mean systemic blood pressure” value (animals with acute PH; placebo 1.0±7.4, p=0.31, not significant) was −4.6±8.0 and the “change of CO (post- minus pre-treatment)” value (animals with acute PH; placebo −0.20±0.31, p=0.008) was 0.62±0.53. The “change of PVR (post- minus pre-treatment)” value (animals with acute PH; placebo −0.4±1.3, p=0.008) was −6.5±2.4, the “variation of HR” value (animals with acute PH; placebo −3.0±7.1, p=0.84, not significant) was −4.4±14.1 and the “change of PAPm (post- minus pre-treatment)” value (animals with acute PH; placebo −3.8±4.2, p=0.008) was −13.0±4.5. The “increase of oxygen saturation” value [3, 5] was 3.2%, the “increase of the cardiac output” value [3, 5] was 18% and the “reduction of pulmonary vascular resistances” value [3, 5] was 36%. For the same molecule, the “reduction of systolic pulmonary pressure” value [3, 5] was 23%, the “reduction of the mean PAP” value [3, 5] was 30% and the “cardiac output after administration” value ([3]; 5 μg/Kg endovenous, 20 minutes, from 3.29±0.9 before, p=0.07) was 3.90 ± 1.5 L/min. The “pulmonary vascular resistances after administration” value ([3]; 5 μg/Kg endovenous, 20 minutes, from 10.0±4.3 before, p=0.002) was 6.4±3.2 Wood units, the “mean PAP after administration” value ([3]; 5 μg/Kg endovenous, 20 minutes, from 37.6±9.8 before, p<0.001) was 28.8±9.8 mmHg and the “systolic pulmonary pressure after administration” value ([3]; 5 μg/Kg endovenous, 20 minutes, from 50.6±15.5 before, p<0.001) was 38.9±9.9 mmHg. The “heart rate after administration” value ([3]; 5 μg/Kg endovenous, 20 minutes, from 83.8±21.1 before, p=0.20, no significant change) was 87.8±16.8 bpm, the “systemic blood pressure after administration” value ([3]; 5 μg/Kg endovenous, 20 minutes, from 85.7±13.9 before, p=0.11, no significant change) was 79.9±6.9 mmHg and the “oxygen saturation after administration” value ([3]; 5 μg/Kg endovenous, 20 minutes, from 90.88±2.64 before, p=0.001) was 93.75±3.01%. The “change of pulmonary vascular resistances (PVRs) after 14 days” value ([4]; osmotic pump, jugular vein, placebo +1.3±1.2, p=0.042) was −1.2±1.6 WU, the “change in heart rate after 14 days” value ([4]; placebo 3.0±28.2, p=0.49, not significant) was −8.2±15.1 bpm and the “change in systemic mean blood pressure after 14 days” value ([4]; placebo 4.3±7.0, p=0.25, not significant) was 2.3±6.9 mmHg.
